Test results as given in US9586951B2 (FUJIFILM Corporation, priority 2013, dated 2017).

Key:
[1] = target: T1, ATM (Homo sapiens, UniProt Q13315); assay: ATM inhibition test (phosphorylation of Chk2 generated by ionizing radiation, AlphaScreen SureFire); format: cell-based; details: phosphorylated Chk2 in NCI-H460 cells, ionizing radiation 8Gy, 1 hour after test compound treatment; read-out: ATM inhibitory activity
T1 construct: detecting phosphorylation of Chk2 in a human non-small cell lung cancer cell line NCI-H460 (ATCC company); host or cells: NCI-H460 human non-small cell lung cancer cells
T1 sequence (Q13315 whole entry): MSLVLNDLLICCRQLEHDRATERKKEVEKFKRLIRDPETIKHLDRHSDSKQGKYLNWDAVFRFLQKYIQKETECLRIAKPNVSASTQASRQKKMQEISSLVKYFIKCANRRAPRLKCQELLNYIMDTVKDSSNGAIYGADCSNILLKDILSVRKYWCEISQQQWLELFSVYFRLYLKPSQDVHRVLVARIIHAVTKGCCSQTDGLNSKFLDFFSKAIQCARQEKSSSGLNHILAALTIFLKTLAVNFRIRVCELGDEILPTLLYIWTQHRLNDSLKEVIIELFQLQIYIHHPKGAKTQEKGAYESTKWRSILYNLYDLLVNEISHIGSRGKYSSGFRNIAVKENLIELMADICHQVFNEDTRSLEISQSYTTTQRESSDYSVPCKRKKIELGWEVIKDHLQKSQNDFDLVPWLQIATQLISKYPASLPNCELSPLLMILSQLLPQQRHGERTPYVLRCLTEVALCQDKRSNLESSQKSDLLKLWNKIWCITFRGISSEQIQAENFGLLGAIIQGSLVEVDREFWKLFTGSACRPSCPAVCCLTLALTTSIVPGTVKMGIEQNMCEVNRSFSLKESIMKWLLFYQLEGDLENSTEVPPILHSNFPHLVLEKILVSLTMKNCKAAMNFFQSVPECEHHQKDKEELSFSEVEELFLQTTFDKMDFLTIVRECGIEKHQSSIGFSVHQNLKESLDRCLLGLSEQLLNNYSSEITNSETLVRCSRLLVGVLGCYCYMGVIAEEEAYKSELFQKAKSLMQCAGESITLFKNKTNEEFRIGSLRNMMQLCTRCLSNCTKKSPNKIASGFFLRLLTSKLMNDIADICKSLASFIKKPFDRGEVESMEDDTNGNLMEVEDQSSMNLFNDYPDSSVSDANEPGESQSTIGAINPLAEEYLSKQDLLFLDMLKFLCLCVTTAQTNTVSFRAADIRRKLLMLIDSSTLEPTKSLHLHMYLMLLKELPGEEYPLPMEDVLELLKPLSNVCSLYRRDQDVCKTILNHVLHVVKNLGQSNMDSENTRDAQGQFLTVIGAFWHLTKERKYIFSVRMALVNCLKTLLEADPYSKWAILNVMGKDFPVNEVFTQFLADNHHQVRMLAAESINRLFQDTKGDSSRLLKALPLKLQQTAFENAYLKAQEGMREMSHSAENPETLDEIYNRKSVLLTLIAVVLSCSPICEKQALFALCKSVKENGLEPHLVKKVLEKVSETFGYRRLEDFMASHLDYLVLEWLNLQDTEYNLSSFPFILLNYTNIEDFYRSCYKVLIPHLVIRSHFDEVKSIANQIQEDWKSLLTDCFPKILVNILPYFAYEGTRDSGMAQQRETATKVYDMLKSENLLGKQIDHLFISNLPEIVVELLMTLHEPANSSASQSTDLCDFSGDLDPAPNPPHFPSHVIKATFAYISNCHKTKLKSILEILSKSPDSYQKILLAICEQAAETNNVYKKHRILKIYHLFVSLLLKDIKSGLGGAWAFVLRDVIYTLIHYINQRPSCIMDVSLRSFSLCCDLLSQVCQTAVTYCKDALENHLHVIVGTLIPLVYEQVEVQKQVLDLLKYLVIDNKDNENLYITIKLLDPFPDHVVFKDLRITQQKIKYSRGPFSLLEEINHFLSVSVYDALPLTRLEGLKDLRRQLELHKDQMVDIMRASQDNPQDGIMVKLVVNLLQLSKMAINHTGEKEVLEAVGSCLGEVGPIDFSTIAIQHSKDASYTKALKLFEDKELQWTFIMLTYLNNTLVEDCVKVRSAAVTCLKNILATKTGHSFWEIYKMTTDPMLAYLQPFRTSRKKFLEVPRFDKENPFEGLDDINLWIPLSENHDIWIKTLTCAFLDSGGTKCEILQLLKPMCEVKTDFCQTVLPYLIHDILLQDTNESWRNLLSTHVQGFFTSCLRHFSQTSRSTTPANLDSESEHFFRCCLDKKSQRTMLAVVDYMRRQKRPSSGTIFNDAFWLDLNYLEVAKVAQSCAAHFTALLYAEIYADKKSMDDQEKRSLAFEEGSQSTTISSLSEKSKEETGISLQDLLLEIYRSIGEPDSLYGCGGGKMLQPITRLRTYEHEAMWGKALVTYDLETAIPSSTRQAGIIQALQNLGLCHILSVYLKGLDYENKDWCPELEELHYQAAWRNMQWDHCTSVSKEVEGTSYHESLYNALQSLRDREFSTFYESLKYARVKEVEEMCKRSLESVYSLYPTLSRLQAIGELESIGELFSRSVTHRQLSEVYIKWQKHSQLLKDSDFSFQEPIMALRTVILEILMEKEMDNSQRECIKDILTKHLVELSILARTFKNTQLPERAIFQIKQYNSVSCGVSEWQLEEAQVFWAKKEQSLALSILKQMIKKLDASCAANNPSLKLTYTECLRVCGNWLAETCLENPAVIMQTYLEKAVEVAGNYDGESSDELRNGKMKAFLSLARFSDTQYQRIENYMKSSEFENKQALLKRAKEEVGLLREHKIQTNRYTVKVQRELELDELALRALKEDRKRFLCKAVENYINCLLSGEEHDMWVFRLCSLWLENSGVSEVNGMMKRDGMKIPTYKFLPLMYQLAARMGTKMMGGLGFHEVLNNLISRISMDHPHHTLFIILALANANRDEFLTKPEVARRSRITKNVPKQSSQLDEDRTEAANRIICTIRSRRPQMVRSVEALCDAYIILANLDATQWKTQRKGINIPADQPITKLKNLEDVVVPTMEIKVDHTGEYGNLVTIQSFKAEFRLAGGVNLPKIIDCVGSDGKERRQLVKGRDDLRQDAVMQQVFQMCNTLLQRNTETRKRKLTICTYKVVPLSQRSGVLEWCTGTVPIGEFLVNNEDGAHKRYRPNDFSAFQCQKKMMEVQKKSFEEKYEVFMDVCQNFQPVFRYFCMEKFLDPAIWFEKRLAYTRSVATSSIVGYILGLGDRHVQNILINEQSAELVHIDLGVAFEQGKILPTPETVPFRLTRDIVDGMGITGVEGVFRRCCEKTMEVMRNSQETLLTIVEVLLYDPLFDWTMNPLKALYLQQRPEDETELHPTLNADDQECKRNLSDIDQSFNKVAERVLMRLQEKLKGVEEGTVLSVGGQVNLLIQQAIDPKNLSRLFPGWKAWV
Summary of the method: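 Phosphorylated Chk2 read by AlphaScreen SureFire in human non-small cell lung cancer NCI-H460 cells, 1 hour after 8Gy ionizing radiation at 37° C. Compound added 1 hour before irradiation. Percent inhibition normalised between irradiated and non-irradiated drug-untreated signals.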

[2] = system: human non-small cell lung cancer cell line NCI-H460; assay: Cell proliferation inhibition test by sensitivity-enhancing to ionizing radiation (Cell Titer Glo); format: cell-based; details: concentration in which SER became 2, NCI-H460 cells, ionizing radiation 2 Gy, cultured 120 hour
Procedure: A human non-small cell lung cancer cell line NCI-H460 (ATCC company) was adjusted so as to be 2×10^3 cells/mL in a RPMI-1640 medium containing penicillin/streptomycin and FBS having a final concentration of 10%, and this was seeded by 100 μL per well in 96-well CellBIND® plates (Corning International Inc.). After 24 hours, the medium of cells was replaced with 100 μL of a medium including serially diluted liquid of the test compound or DMSO having a final concentration of 0.1%. 30 minutes after the medium was replaced, half of the plates were irradiated with ionizing radiation 2 Gy (Faxitron Bioptics, LLC, RX-650 type). The cells of the plates irradiated with ionizing radiation and the plates not being irradiated with ionizing radiation were cultured at 37° C. for 120 hour in 5% CO2. After a Cell Titer Glo reaction liquid of an equal volume was added to each well, the amount of luminescence was measured, according to the instruction book of Cell Titer Glo (Promega Corporation). Since the amount of luminescence is proportional to the ATP concentration in cells, the amount of luminescence was used as an indicator of the number of viable cells. Sensitivity-enhancing effects (SER) to ionizing radiation by the test compound was calculated by the following equation. SER=(amount of luminescence of wells including DMSO having a final concentration of 0.1% in the plates irradiated with ionizing radiation×amount of luminescence of wells including a compound in the plates not being irradiated with ionizing radiation)/(amount of luminescence of wells including the test compound in the plates irradiated with ionizing radiation×amount of luminescence of wells including DMSO having a final concentration of 0.1% in the plates not being irradiated with ionizing radiation)
SER at each compound concentration was plotted by nonlinear regression fit (FitModel (205)) by a sigmoidal dose-response equation using XLfit software (IDBS), and the concentration (SER2) in which SER became 2 was calculated.

IC50 [1]	Molecule	SER2 (concentration at which the radiation sensitivity-enhancement ratio reaches 2) ([2]; Homo sapiens, NCI-H460, 120 h)	SER2 (concentration at which the radiation sensitivity-enhancement ratio reaches 2) [2]	SER2 (concentration at which the radiation sensitivity-enhancement ratio reaches 2) ([2]; Homo sapiens)
< 100 nM	COc1ncc(CNc2ccc3c(c2)Sc2cccc(-c4cc(N5CCOCC5)cc(=O)[nH]4)c2O3)cn1 [Example 4-4-4, 6-(8-(((2-Methoxypyrimidin-5-yl)methyl)amino)phenoxathiin-4-yl)-4-morpholino pyridin-2 (1H)-one]	500 to 2000 nM		
< 100 nM	COC[C@H](CN1CCC(C(F)(F)F)CC1)Nc1ccc2c(c1)Sc1cccc(-c3cc(N4CCOCC4)cc(=O)[nH]3)c1S2 [Example 1-46-8, (S)-6-(7-((1-Methoxy-3-(4-(trifluoromethyl)piperidin-1-yl)propan-2-yl)amino)thianthren-1-yl)-4-morpholino pyridin-2(1H)-one]	100 to 500 nM		
< 100 nM	COCCCC(Nc1ccc2c(c1)Sc1cccc(-c3cc(N4CCOCC4)cc(=O)[nH]3)c1S2)c1ccc(C)cn1 (stereo not shown) [Example 1-12-130, 6-(7-((4-Methoxy-1-(5-methylpyridin-2-yl)butyl)amino)thianthren-1-yl)-4-morpholino pyridin-2(1H)-one]	100 to 500 nM		
< 100 nM	CC(Nc1ccc2c(c1)Cc1cccc(-c3cc(N4CCOCC4)cc(=O)[nH]3)c1O2)c1cccc(F)n1 (stereo not shown) [Example 2-14-21, 6-(7-((1-(6-Fluoropyridin-2-yl)ethyl)amino)-9H-xanthen-4-yl)-4-morpholino pyridin-2(1H)-one]	100 to 500 nM		
< 100 nM	Cc1cccc(C(CO)Nc2ccc3c(c2)Sc2cccc(-c4cc(N5CCOCC5)cc(=O)[nH]4)c2S3)n1 (stereo not shown) [Example 1-12-71, 6-(7-((2-Hydroxy-1-(6-methylpyridin-2-yl)ethyl)amino)thianthren-1-yl)-4-morpholino pyridin-2(1H)-one]	100 to 500 nM		
100 to 500 nM	CNc1ccc(CNc2ccc3c(c2)Cc2cccc(-c4cc(N5CCOCC5)cc(=O)[nH]4)c2O3)cn1 [Example 2-2-7, 6-(7-(((6-(Methylamino)pyridin-3-yl)methyl)amino)-9H-xanthen-4-yl)-4-morpholino pyridin-2 (1H)-one]	100 to 500 nM		
< 100 nM	Cc1cccc(CNc2ccc3c(c2)Cc2ccc(F)c(-c4cc(N5CCOCC5)cc(=O)[nH]4)c2O3)n1 [Example 2-46-4, 6-(3-Fluoro-7-(((6-methylpyridin-2-yl)methyl)amino)-9H-xanthen-4-yl)-4-morpholinopyridin-2(1H)-one]	100 to 500 nM		
100 to 500 nM	COc1cnc(CNc2ccc3c(c2)Cc2cccc(-c4cc(N5CCOCC5)cc(=O)[nH]4)c2O3)cn1 [Example 2-2-36, 6-(7-(((5-Methoxypyrazin-2-yl)methyl)amino)-9H-xanthen-4-yl)-4-morpholino pyridin-2(1H)-one]	500 to 2000 nM		
< 100 nM	CN(C)c1ncc(CNc2ccc3c(c2)Sc2cccc(-c4cc(N5CCOCC5)cc(=O)[nH]4)c2S3)cn1 [Example 1-12-11, 6-(7-(((2-(Dimethylamino)pyrimidin-5-yl)methyl)amino)thianthren-1-yl)-4-morpholino pyridin-2(1H)-one]	100 to 500 nM		
< 100 nM	Cc1cnc(C(C)Nc2ccc3c(c2)Sc2cccc(-c4cc(N5CCOCC5)cc(=O)[nH]4)c2S3)cn1 (single isomer, unassigned) [Example 1-12-137-2, 6-(7-((1-(5-methylpyrazin-2-yl)ethyl)amino)thianthren-1-yl)-4-morpholinopyridin-2(1H)-one]		100 to 500 nM	
< 100 nM	N#Cc1cccc(CNc2ccc3c(c2)Sc2cccc(-c4cc(N5CCOCC5)cc(=O)[nH]4)c2S3)n1 [Example 1-12-38, 6-(((6-(4-Morpholino-6-oxo-1,6-dihydropyridin-2-yl)thianthren-2-yl)amino)methyl)picolinonitrile]	< 100 nM		
< 100 nM	CC(Nc1ccc2c(c1)Sc1cccc(-c3cc(N4CCOCC4)cc(=O)[nH]3)c1S2)c1cc(C#N)ncn1 (single isomer, unassigned) [Example 1-12-146-1, 6-(1-((6-(4-morpholino-6-oxo-1,6-dihydropyridin-2-yl)thianthren-2-yl)amino)ethyl)pyrimidine-4-carbonitrile]	100 to 500 nM		
< 100 nM	O=c1cc(N2CCOCC2)cc(-c2cccc3c2Oc2ccc(NCc4cncc(F)c4)cc2S3)[nH]1 [Example 4-8-12, 6-(8-(((5-Fluoropyridin-3-yl)methyl)amino)phenoxathiin-4-yl)-4-morpholino pyridin-2(1H)-one]	100 to 500 nM		
< 100 nM	O=c1cc(N2CCOCC2)cc(-c2c(F)ccc3c2Oc2ccc(NCc4cccc(Cl)n4)cc2C3)[nH]1 [Example 2-46-1, 6-(7-(((6-Chloropyridin-2-yl)methyl)amino)-3-fluoro-9H-xanthen-4-yl)-4-morpholinopyridin-2(1H)-one]	< 100 nM		
< 100 nM	Cc1ccc(CNc2ccc3c(c2)Sc2cccc(-c4cc(N5CCOCC5)cc(=O)[nH]4)c2O3)nc1 [Example 4-8-13, 6-(8-(((5-Methylpyridin-2-yl)methyl)amino)phenoxathiin-4-yl)-4-morpholino pyridin-2(1H)-one]	100 to 500 nM		
< 100 nM	6-(7-(((5-Methyl pyridin-2- yl)(1-methyl pyrrolidin-3-yl) methyl)amino)thianthren-1- yl)-4-morpholino pyridin-2 (1H)-one [Example 1-22-9]		< 100 nM	
< 100 nM	Cc1ccc(C(Nc2ccc3c(c2)Sc2cccc(-c4cc(N5CCOCC5)cc(=O)[nH]4)c2S3)C2CCN(C)CC2)nc1 (stereo not shown) [Example 1-35, 6-(7-(((1-methylpiperidin-4-yl)(5-methylpyridin-2-yl)methyl)amino)thianthren-1-yl)-4-morpholinopyridin-2(1H)-one]	< 100 nM		
< 100 nM	O=c1cc(N2CCOCC2)cc(-c2c(F)ccc3c2Oc2ccc(NCc4cc(C5CC5)ccn4)cc2C3)[nH]1 [Example 2-46-3, 6-(7-(((4-Cyclopropylpyridin-2-yl)methyl)amino)-3-fluoro-9H-xanthen-4-yl)-4-morpholinopyridin-2(1H)-one]	< 100 nM		
< 100 nM	Cc1ccc(C(C)(C)Nc2ccc3c(c2)Sc2cccc(-c4cc(N5CCOCC5)cc(=O)[nH]4)c2S3)nc1 [Example 1-50-2, 6-(7-((2-(5-Methylpyridin-2-yl)propan-2-yl)amino)thianthren-1-yl)-4-morpholino pyridin-2(1H)-one]	100 to 500 nM		
< 100 nM	O=c1cc(N2CCOCC2)cc(-c2cccc3c2Oc2ccc(NCc4cncc(C5C=CCC5)c4)cc2C3)[nH]1 (stereo not shown) [Example 2-2-60, 6-(7-(((5-(Cyclopent-2-en-1-yl)pyridin-3-yl)methyl)amino)-9H-xanthen-4-yl)-4-morpholino pyridin-2(1H)-one]	500 to 2000 nM		
< 100 nM	Cc1cnc(C(C)Nc2ccc3c(c2)Cc2cccc(-c4cc(N5CCOCC5)cc(=O)[nH]4)c2O3)nc1 (stereo not shown) [Example 2-14-80, 6-(7-((1-(5-Methylpyrimidin-2-yl)ethyl)amino)-9H-xanthen-4-yl)-4-morpholino pyridin-2 (1H)-one]	100 to 500 nM		
< 100 nM	COc1cc(CNc2ccc3c(c2)Cc2cccc(-c4cc(N5CCOCC5)cc(=O)[nH]4)c2O3)cnc1OC [Example 2-2-35, 6-(7-(((5,6-Dimethoxypyridin-3-yl)methyl)amino)-9H-xanthen-4-yl)-4-morpholino pyridin-2(1H)-one]	500 to 2000 nM		

Molecule	IC50 [1]	SER2 (concentration at which the radiation sensitivity-enhancement ratio reaches 2) ([2]; Homo sapiens, NCI-H460, 120 h)	SER2 (concentration at which the radiation sensitivity-enhancement ratio reaches 2) [2]	SER2 (concentration at which the radiation sensitivity-enhancement ratio reaches 2) ([2]; Homo sapiens)
O=c1cc(N2CCOCC2)cc(-c2cccc3c2Sc2ccc(NC(CF)CN4CCCCC4)cc2S3)[nH]1 (stereo not shown) [Example 1-41-2, 6-(7-((1-Fluoro-3-(piperidin-1-yl)propan-2-yl)amino)thianthren-1-yl)-4-morpholinopyridin-2(1H)-one]	< 100 nM			100 to 500 nM
